# Laboratory results taken from a melting point compilation (Tetko et al.).
row,melting point,SMILES
1,151 °C,O=C(O)c1cc(-c2ccco2)on1
2,140 °C,CCOC(=O)/C(C#N)=C/c1ccc(-c2ccc(Cl)cc2)o1
3,206 °C,O=C1c2ccccc2C(=O)c2cc(Br)ccc21
4,159 °C,Clc1c(Cl)c(Cl)c2c(c1Cl)OC1Cc3ccccc3C1O2 (stereo unspecified)
5,108 to 111 °C,O=Cc1cnc2ccccc2n1
6,166 to 168 °C,NNC(=O)N1N=C(c2ccccc2)CCC1=O
7,56 °C,CCOC(=O)C#Cc1cccc(C#CC(=O)OCC)c1
8,72 to 74 °C,CC(=O)c1c(-c2c(Cl)cccc2Cl)noc1C
9,180 °C,COc1ccc(/C(C(=O)c2ccccc2)=C2/C(=O)N(C(C)=O)c3ccccc32)cc1
10,175 °C,CN(C(=O)C(Cl)Cl)c1ccc(O)cc1
11,159 to 161 °C,O=C(O)c1ccc(Cl)cc1Br
12,130 °C,N#C/C(=C\c1ccc(Cl)cc1)c1nc(-c2cccc3ccccc23)cs1
13,52 °C,O=C(OCc1ccccc1)c1sc(Cl)nc1C(F)(F)F
14,70 °C,CCc1nnc(-c2ccccn2)nc1CC
15,116 °C,Cc1cccc2c1C(=O)OC2=O
16,145 to 147 °C,O=S(=O)(O)c1cccc2cccc(Cl)c12
17,122 to 123 °C,O=C(Cl)c1ccc(-c2nccs2)cc1
18,51 °C,Cc1ccc([N+](=O)[O-])cc1N=C=O
19,33.5 °C,Cc1ccc2c(C)cccc2c1C
20,58 to 58.5 °C,CC1=C(c2ccccc2)c2ccccc2C1
21,138 °C,O=C(O)CCc1ccc(O)c(O)c1
22,90 to 91 °C,OCc1cc(-c2ccco2)on1
23,47 °C,Cc1ccc(C#N)cc1F
24,175 °C,O=C(O)c1ccc(C(F)(F)F)c(F)c1

# Second part, the compound before the results:
row,SMILES,melting point
1,CC(=O)OCC1OCC(OC(C)=O)(C2C=Nc3c2ncn(C2(OC(C)=O)COC(COC(C)=O)C2OC(C)=O)c3=O)C1OC(C)=O (stereo unspecified),76 °C
2,O=C(O)c1ccncc1C(=O)O,262 °C
3,OCC(F)(F)C(F)(F)CO,85 to 87 °C
4,"CC1(C)OC(CO)C(CO)O1 (single isomer, unassigned; (+))",47 to 51 °C
5,CNC(=O)Oc1cccc(C(C)C)c1,73 °C
6,O=C(NC1C2C=CC(C2)C1C(=O)O)OCc1ccccc1 (stereo unspecified),119 to 123 °C
7,O=C(O)/C(=C/c1ccccc1F)c1ccccc1,169 °C
8,O=Cc1ccc2cccnc2n1,138 to 143 °C
9,O=S(=O)(Nc1c(F)c(F)cc(F)c1F)C(F)(F)F,95 °C
10,CCC1CN2CCC1CC2C(O)c1ccnc2ccc(OC)cc12 (stereo unspecified),172 °C
11,NC(=O)C(N)c1ccccc1 (stereo unspecified),125 to 129 °C
12,O=C(O)c1cc(Br)c(Br)o1,171 °C
13,Cc1csc(C)c1C,-26.2 °C
14,C[C@]12C=CC(=O)C=C1C(=O)C[C@@H]1[C@@H]2CC[C@@]2(C)[C@H]1CCC21OCCO1,207 °C
15,CC(C)(C)OC(=O)NCc1nnc(S)n1C1CC1,193 to 194 °C
16,O=C(OC(=O)C(=Cc1ccccc1)Cc1ccccc1)C(=Cc1ccccc1)Cc1ccccc1,107 to 109 °C
17,C(=CC=Cc1ccccc1)C=Cc1ccccc1,199 to 203 °C
18,COc1ccc(OCCBr)cc1,46 to 50 °C
19,N=C(N)NC(=N)N,136 °C
20,O=C(CBr)c1ccnc(Cl)c1,55 to 56.5 °C
21,CC(=O)OC1CC[C@@]2(C)C(=CC[C@@H]3[C@@H]2CC[C@@]2(C)[C@H]3CC[C@]2(O)C#Cc2ccccc2)C1 (stereo partly specified),147 to 148 °C
22,O=C1CCN2C(=O)c3ccccc3CC2C1 (stereo unspecified),126 °C
23,COc1cc(F)c(C=O)cc1F,99 °C
24,COc1ccc(C#N)cc1OC,67 °C
25,CC(C)(C)N(CCO)CCO,42 °C
26,COc1cc(C=CC(=O)O)c([N+](=O)[O-])cc1OC,270 °C
27,CCCCCCC(O)CC (stereo unspecified),22 °C
